Source: patent US9765037B2, “Compositions and methods for treating toxoplasmosis, cryptosporidiosis, and other apicomplexan protozoan related diseases” (University of Washington Through its Center for …, priority 2010, dated 2017)
Values after ≈ are worked out from the molar mass of the structure shown. Like-named read-outs stand apart in the source and are kept apart here.

Columns and labels:
CpCDPK1 = CpCDPK1 (Cryptosporidium parvum (strain Iowa II), UniProt A3FQ16); assay: biochemical; assay type: biochemical
AblKD = AblKD (Homo sapiens (Human), UniProt P00519); assay: Tyrosine kinase IC50, AblKD; assay type: biochemical; settings: Table 9
glioma derived (SF539) = assay: Growth inhibition of human cell line SF539
[1] = tested on: human promyelocytic leukemia (HL-60); assay: Growth inhibition of human cell line HL-60
[2] = tested on: human lymphocyte (CRL8155); assay: Growth inhibition of human cell line CRL8155
[3] = tested on: colorectal carcinoma (HC 2998); assay: Growth inhibition of human cell line HC 2998
HckKD = HckKD (Homo sapiens (Human), UniProt P08631); assay: Tyrosine kinase IC50, HckKD; assay type: biochemical; settings: Table 9
PfCDPK1 = PfCDPK1 (Plasmodium falciparum (isolate 3D7), UniProt P62344); assay: biochemical
PfCDPK4 = PfCDPK4 (Plasmodium falciparum (isolate 3D7), UniProt Q8IBS5); assay: biochemical
[4] = Solubility in buffers of various pH; assay type: physicochemical; settings: buffer
human fibroblast = assay: Human fibroblast replication / cytotoxicity (Alamar blue); assay type: cell-based
[5] = Blood levels after oral gavage dosing of mice (LC-MS); settings: mouse, in vivo, po
SrcKD = SrcKD (Homo sapiens (Human), UniProt P12931); assay: Tyrosine kinase IC50, SrcKD; assay type: biochemical; settings: Table 9
[6] = Table 8, read-out: IC50 (μM) CpCDPK1
[7] = pH 6.5, aqueous buffer, read-out: Experimental Solubility pH 6.5

| SMILES | Cell Toxicity SF539, % at 10 μM (glioma derived (SF539)) [% at 10 μM] | Cell Toxicity HL60, % at 10 μM [1] [% at 10 μM] | Cell Toxicity CRL8155, % at 10 μM [2] [% at 10 μM] | Cell Toxicity HCC2998, % at 10 μM [3] [% at 10 μM] | EC50 (PfCDPK1) [nM] | EC50 (PfCDPK4) [nM] | solubility [4, 7] [µM] | Observed HFF Toxicity (T at concentration) (human fibroblast) | further results |
| --- | --- | --- | --- | --- | --- | --- | --- | --- | --- |
| CC(C)(C)n1nc(Cc2cccc3ccccc23)c2c(N)ncnc21 [Compound 5d, 1-tert-butyl-3-(naphthalen-1-ylmethyl)-1H-pyrazolo[3,4-d]pyrimidin-4-amine] | <30 | <30 | <30 | <30 |  |  |  |  | IC50 (CpCDPK1; [6]): 0.144 µM; IC50 (CpCDPK1; read-out: CpCDPK1 IC50): 0.14 µM; IC50 (AblKD): 7.7 µM; GI50 (glioma derived (SF539); read-out: GI50 (μM) SF539, human cell line SF539): > 10 µM; GI50 ([1]; read-out: GI50 (μM) HL60, human cell line HL60): > 10 µM; GI50 ([2]; read-out: GI50 (μM) CRL8155, human cell line CRL8155): > 10 µM; GI50 ([3]; read-out: GI50 (μM) HCC2998, human cell line HCC2998): > 10 µM |
| CCOc1ccc2cc(-c3nn(C(C)C)c4ncnc(N)c34)ccc2c1 [Compound 7r, 3-(6-ethoxynaphthalen-2-yl)-1-isopropyl-1H-pyrazolo[3,4-d]pyrimidin-4-amine] | <30 | <30 | <30 | <30 | 1290 | 429 | 12 (≈ 4.17 µg/mL) |  | IC50 (CpCDPK1; read-out: CpCDPK1 IC50): 0.012 µM; IC50 (HckKD): 0.218 µM |
| CCCOc1ccc2cc(-c3nn(C(C)C)c4ncnc(N)c34)ccc2c1 [Compound 12, 1-isopropyl-3-(6-propoxynaphthalen-2-yl)-1H-pyrazolo[3,4-d]pyrimidin-4-amine] | <30 | <30 | <30 | <30 | 659 | 526 |  |  | IC50 (HckKD): 0.244 µM |
| CCCOc1ccc2cc(-c3nn(CC4CCNCC4)c4ncnc(N)c34)ccc2c1 [Compound 33, 1-(piperidin-4-ylmethyl)-3-(6-propoxynaphthalen-2-yl)-1H-pyrazolo[3,4-d]pyrimidin-4-amine] | <30 | <30 | <30 | 30 | 196 | 21.1 |  | T at 100 μM | IC50 (HckKD): > 10 µM |
| CCCCOc1ccc2cc(-c3nn(CC4CCNCC4)c4ncnc(N)c34)ccc2c1 [Compound 35, 3-(6-butoxynaphthalen-2-yl)-1-(piperidin-4-ylmethyl)-1H-pyrazolo[3,4-d]pyrimidin-4-amine] | <30 | <30 | <30 | <30 | 151 | 31.2 | 45 (≈ 19.4 µg/mL) | 25 to 100 µM | IC50 (CpCDPK1; [6]): 0.0044 µM; IC50 (HckKD): > 10 µM |
| C=CCOc1ccc2cc(-c3nn(CC4CCNCC4)c4ncnc(N)c34)ccc2c1 [Compound 36, 3-(6-(allyloxy)naphthalen-2-yl)-1-(piperidin-4-ylmethyl)-1H-pyrazolo[3,4-d]pyrimidin-4-amine] | <30 | <30 | <30 | <30 | 146 | 15.7 |  | T at 100 μM | IC50 (HckKD): > 10 µM; AUC [5]: 1.83 µM·h; Cmax [5]: 0.59 µM; Tmax [5]: 3.67 h |
| Nc1ncnc2c1c(-c1ccc3cc(OCc4ccccc4Cl)ccc3c1)nn2CC1CCNCC1 [Compound 37, 3-(6-(2-chlorobenzyloxy)naphthalen-2-yl)-1-(piperidin-4-ylmethyl)-1H-pyrazolo[3,4-d]pyrimidin-4-amine] |  |  |  |  | 95.8 | 71.6 |  | T at 100 μM |  |
| Nc1ncnc2c1c(-c1ccc3cc(OCc4cccc(Cl)c4)ccc3c1)nn2CC1CCNCC1 [Compound 38, 3-(6-(3-chlorobenzyloxy)naphthalen-2-yl)-1-(piperidin-4-ylmethyl)-1H-pyrazolo[3,4-d]pyrimidin-4-amien] |  | <30 | <30 |  | 45.2 | 34.9 |  | T at 100 μM | Cell Toxicity HL60, % at 30 μM ([1]; 30 μM): 98% at 30 μM; Cell Toxicity CRL8155, % at 30 μM ([2]; 30 μM): 98% at 30 μM |
| CC(C)n1nc(-c2ccc3cc(OCc4ccccc4)ccc3c2)c2c(N)ncnc21 [Compound 40, 3-(6-(benzyloxy)naphthalen-2-yl)-1-isopropyl-1H-pyrazolo[3,4-d]pyrimidin-4-amine] |  |  |  |  | 96.3 | 514 |  | T at 100 μM |  |
| C=CCOc1ccc2cc(-c3nn(C(C)C)c4ncnc(N)c34)ccc2c1 [Compound 41, 3-(6-(allyloxy)naphthalen-2-yl)-1-isopropyl-1H-pyrazolo[3,4-d]pyrimidin-4-amine] |  | <30 | <30 |  | 36.3 | 19.2 | 4.4 (≈ 1.58 µg/mL) | T at 100 μM | AUC [5]: 52.9 µM·h; Cmax [5]: 13.6 µM; Tmax [5]: 1.67 h |
| CCCCOc1ccc2cc(-c3nn(C(C)C)c4ncnc(N)c34)ccc2c1 [Compound 42, 3-(6-butoxynaphthalen-2-yl)-1-isopropyl-1H-pyrazolo[3,4-d]pyrimidin-4-amine] |  |  |  |  | 156 | 308 | 4.4 (≈ 1.65 µg/mL) | T at 100 μM | AUC [5]: 40.6 µM·h; Cmax [5]: 10.7 µM; Tmax [5]: 2.67 h |
| CC(C)COc1ccc2cc(-c3nn(CC4CCNCC4)c4ncnc(N)c34)ccc2c1 [Compound 44, 3-(6-isobutoxynaphthalen-2-yl)-1-(piperidin-4-ylmethyl)-1H-pyrazolo[3,4-d]pyrimidin-4-amine] |  |  |  |  | 182 | 58.3 | 38 (≈ 16.4 µg/mL) | T at 100 μM | solubility ([4]; aqueous buffer, pH 2.0, read-out: Experimental Solubility pH 2.0): 47 µM (≈ 20.2 µg/mL); solubility ([4]; pH 7.4, aqueous buffer, read-out: Experimental Solubility pH 7.4): 33 µM (≈ 14.2 µg/mL); AUC [5]: 2.47 µM·h; Cmax [5]: 0.95 µM; Tmax [5]: 3 h |
| CCOc1ccc2cc(-c3nc(C(C)(C)C)n4ccnc(N)c34)ccc2c1 [Compound 69, 3-tert-butyl-1-(6-ethoxynaphthalen-2-yl)imidazo[1,5-a]pyrazin-8-amine] |  | <30 | <30 |  | 198 | 132 | 3 (≈ 1.08 µg/mL) | T at 25 μM |  |
| Nc1ncnc2c1cnn2CC1CCNCC1 [Compound 99] |  |  |  |  |  |  |  |  | IC50 (SrcKD): > 10 µM; IC50 (AblKD): > 10 µM |
| Nc1ncnc2c1c(-c1ccc3oc(-c4ccccc4)nc3c1)nn2CC1CCNCC1 [Compound 120] |  |  |  |  | 25.5 | 214 | 44 (≈ 18.7 µg/mL) | T at 25 μM |  |
| CC(C)(C)n1ncc2c(N)ncnc21 [Compound 123] |  |  |  |  |  |  |  |  | IC50 (SrcKD): > 10 µM; IC50 (AblKD): > 10 µM |
| CC(C)(C)n1nc(-c2ccccc2)c2c(N)ncnc21 [Compound 140] |  |  |  |  | 337 | 399 | 22 (≈ 5.88 µg/mL) |  | IC50 (AblKD): 0.636 µM |
